# Data as given in patent US20130310379A1, “MODULATORS OF METHYL MODIFYING ENZYMES, COMPOSITIONS AND USES THEREOF” (CONSTELLATION PHARMACEUTICALS, priority 2010, published 2013).
# Experiments:
# EZH2 = EZH2 (Homo sapiens, UniProt Q15910); test: EZH2 assay: rPRC2 with biotinylated oligonucleosome substrates and 3H SAM, FlashPlate scintillation counting, IC50; type: biochemical; conditions: rPRC2, biotinylated oligonucleosome substrates, 3H SAM; read-out: EZH2 IC50
# Summary of the method: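 IC50 from 4-parameter fit, baselines fixed at 0 and 100%. Compounds (top 80 uM, 2-fold series to 0.16 uM) pre-incubated 20 min with 2 nM EZH2-PRC2; 60-min methylation in pH 8.5 Tris with 0.2 uM 3H SAM, 0.2 uM oligonucleosomes, 3.6 uM H3K27me3 peptide.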
# Y641N EZH2 = Y641N EZH2 (Homo sapiens, UniProt Q15910, Y641N); test: Y641N EZH2 assay: performed as the EZH2 assay, using reconstituted H3K27Me2 oligonucleosomes as substrate; type: biochemical
# Y641N EZH2, sequence (Q15910 whole entry Y641N): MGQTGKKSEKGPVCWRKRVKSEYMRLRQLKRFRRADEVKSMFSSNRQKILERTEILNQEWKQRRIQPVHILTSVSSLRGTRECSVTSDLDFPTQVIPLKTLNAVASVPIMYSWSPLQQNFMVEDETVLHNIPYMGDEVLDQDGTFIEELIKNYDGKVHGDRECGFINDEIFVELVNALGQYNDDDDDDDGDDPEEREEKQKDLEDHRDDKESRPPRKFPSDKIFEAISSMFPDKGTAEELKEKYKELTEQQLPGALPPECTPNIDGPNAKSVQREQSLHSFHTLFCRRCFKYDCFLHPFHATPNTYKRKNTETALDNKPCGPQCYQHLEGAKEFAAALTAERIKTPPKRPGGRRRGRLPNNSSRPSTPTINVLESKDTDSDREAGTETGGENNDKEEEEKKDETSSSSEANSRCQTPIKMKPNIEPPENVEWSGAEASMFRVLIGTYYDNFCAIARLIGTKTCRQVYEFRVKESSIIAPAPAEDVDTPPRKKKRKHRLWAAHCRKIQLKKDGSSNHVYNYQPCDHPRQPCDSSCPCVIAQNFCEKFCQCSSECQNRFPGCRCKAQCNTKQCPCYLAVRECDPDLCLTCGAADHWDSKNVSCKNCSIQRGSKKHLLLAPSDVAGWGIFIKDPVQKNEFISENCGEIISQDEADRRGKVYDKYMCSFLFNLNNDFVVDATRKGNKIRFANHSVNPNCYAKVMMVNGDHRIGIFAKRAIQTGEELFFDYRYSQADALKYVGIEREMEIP
# Y641N EZH2, sequence (O75530 whole entry partner): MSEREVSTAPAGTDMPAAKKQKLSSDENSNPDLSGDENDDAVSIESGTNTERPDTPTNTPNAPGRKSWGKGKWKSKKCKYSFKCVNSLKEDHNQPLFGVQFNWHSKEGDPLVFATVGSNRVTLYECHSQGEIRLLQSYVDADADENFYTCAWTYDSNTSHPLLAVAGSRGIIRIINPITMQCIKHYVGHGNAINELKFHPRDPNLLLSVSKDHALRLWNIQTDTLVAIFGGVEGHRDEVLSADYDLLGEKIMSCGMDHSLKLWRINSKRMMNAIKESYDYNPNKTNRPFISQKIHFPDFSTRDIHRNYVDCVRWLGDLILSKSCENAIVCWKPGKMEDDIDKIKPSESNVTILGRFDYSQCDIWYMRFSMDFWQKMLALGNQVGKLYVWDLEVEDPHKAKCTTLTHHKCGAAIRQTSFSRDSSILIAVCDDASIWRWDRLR
# Y641N EZH2, sequence (Q15022 whole entry partner): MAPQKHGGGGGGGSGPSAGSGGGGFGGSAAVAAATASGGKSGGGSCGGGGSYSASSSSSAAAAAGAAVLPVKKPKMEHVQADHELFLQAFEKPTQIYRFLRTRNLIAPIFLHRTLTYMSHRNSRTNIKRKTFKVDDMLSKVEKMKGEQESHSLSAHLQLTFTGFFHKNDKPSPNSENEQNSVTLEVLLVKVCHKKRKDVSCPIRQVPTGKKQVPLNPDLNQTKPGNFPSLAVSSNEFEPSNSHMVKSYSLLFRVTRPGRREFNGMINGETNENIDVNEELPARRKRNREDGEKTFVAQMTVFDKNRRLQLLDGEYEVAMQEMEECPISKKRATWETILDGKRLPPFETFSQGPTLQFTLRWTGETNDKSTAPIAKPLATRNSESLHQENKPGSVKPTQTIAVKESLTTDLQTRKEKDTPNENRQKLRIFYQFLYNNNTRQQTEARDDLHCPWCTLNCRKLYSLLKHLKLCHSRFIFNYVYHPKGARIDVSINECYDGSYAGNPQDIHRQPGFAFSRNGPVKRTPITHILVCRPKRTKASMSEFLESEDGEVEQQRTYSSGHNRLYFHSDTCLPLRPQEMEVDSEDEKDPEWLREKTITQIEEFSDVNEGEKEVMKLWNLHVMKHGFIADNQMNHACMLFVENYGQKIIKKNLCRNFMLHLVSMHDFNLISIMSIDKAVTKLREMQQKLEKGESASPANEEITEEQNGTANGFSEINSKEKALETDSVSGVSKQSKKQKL
# Protocol: Assays were carried out by mixing rPRC2 together with biotinylated oligonucleosome substrates in the presence of the radio-labeled enzyme co-factor, S-adenosyl-L-methionine (^3H SAM) (Perkin Elmer) and monitoring the enzymatically mediated transfer of tritiated methyl groups from ^3H SAM to histone lysine residues. The amount of resulting tritated methylhistone product was measured by first capturing the biotinylated oligonuclesomes in streptavidin (SAV) coated FlashPlates (Perkin Elmer), followed by a wash step to remove un-reacted ^3H SAM, and then counting on a TopCount NXT 384 well plate scintillation counter (Perkin Elmer). The final assay conditions for EZH2 were as follows: 50 mM Tris Buffer pH 8.5, 1 mM DTT, 69 uM Brij-35 detergent, 5.0 mM MgCl2, 0.1 mg/mL BSA, 0.2 uM ^3H SAM, 0.2 uM biotinylated oligonucleosomes, 3.6 uM H3K27me3 peptide and 2 nM EZH2.
# Compound IC50 measurements were obtained as follows: Compounds were first dissolved in 100% DMSO as 10 mM stock solutions. […] A 12.5 uL volume of the HMT enzyme, H3K27me3 peptide and oligonucleosome substrate in assay buffer was added to each well of the assay plate using a Multidrop Combi (ThermoFisher). Compounds were pre-incubated with the enzyme for 20 min, followed by initiation of the methyltransferase reaction by addition of 12.5 uL of 3H SAM in assay buffer (final volume=25 uL). The final concentrations of compounds ranged from a top default concentration of 80 uM down to 0.16 uM in ten 2-fold dilution steps. Reactions were carried out for 60 minutes and quenched with 20 uL per well of 1.96 mM SAH, 50 mM Tris PH 8.5, 200 mM EDTA. Stopped reactions were transferred to SAV coated Flashplates (Perkin Elmer), incubated for 120 min, washed with a plate washer, and then read on the TopCount NXT (1.0 min/well) to measure the amount of methylhistone product formed during the reaction. The amount of methylhistone product was compared with the amount of product formed in the 0% and 100% inhibition control wells allowing the calculation of % Inhibition in the presence of the individual compounds at various concentrations. IC50's were computed using a 4 parameter fit non-linear curve fitting software package (XLFIT, part of the database package, ActivityBase (IDBS)) where the four parameters were IC50, Hill slope, pre-transitional baseline (0% INH), and post-transitional baseline (100% INH); with the latter two parameters being fixed to zero and 100%, respectively, by default.
# EZH2, sequence (Q15910 whole entry): as the sequence (Q15910 whole entry Y641N) above, with N641Y counted along it
# EZH2, sequence (O75530 whole entry partner): as the sequence (O75530 whole entry partner) above
# EZH2, sequence (Q15022 whole entry partner): as the sequence (Q15022 whole entry partner) above
SMILES,IC50 (EZH2),IC50 (Y641N EZH2)
CC1(C)CC(NC(=O)c2ccc(Oc3cccc(-c4cn[nH]c4)c3C#N)c(F)c2)CC(C)(C)N1 [Compound I-398],< 5 µM,5 to 20 µM
CC1OC(=O)c2c(Oc3ccc(C(=O)NC4CC(C)(C)NC(C)(C)C4)cc3Cl)cccc21 (centres unmarked) [Compound I-401],< 5 µM,< 5 µM
CC1(C)CC(NC(=O)c2ccc(Cn3ccnc3)cc2)CC(C)(C)N1 [Compound I-404],> 80 µM,20 to 80 µM
CC1(C)CC(NC(=O)c2ccc(Cn3cnc4ccccc43)cc2)CC(C)(C)N1 [Compound I-405],20 to 80 µM,> 80 µM
CC1(C)CC(NC(=O)c2ccc(N3CCC(c4ccccc4)C3)c(Cl)c2)CC(C)(C)N1 (centres unmarked) [Compound I-413],20 to 80 µM,> 80 µM
CNCc1cccc(Oc2ccc(C(=O)NC3CC(C)(C)NC(C)(C)C3)cn2)c1 [Compound I-415],20 to 80 µM,> 80 µM
CN1CCN(c2cccc(Oc3ccc(C(=O)NC4CC(C)(C)NC(C)(C)C4)cc3Cl)c2)CC1 [Compound I-417],20 to 80 µM,> 80 µM
CC1(C)CC(NC(=O)c2ccc(Oc3cccc4c3CCNC4)c(Cl)c2)CC(C)(C)N1 [Compound I-423],< 5 µM,20 to 80 µM
N#Cc1ccccc1Oc1ccc(C(=O)NC2CCSCC2)cc1Cl [Compound I-427],> 80 µM,> 80 µM
CC1(C)CC(NC(=O)c2ccc(Oc3cccc(-c4cnccn4)c3C#N)c(Cl)c2)CC(C)(C)N1 [Compound I-428],< 5 µM,5 to 20 µM
CC1(C)CC(NC(=O)N2CCC(Oc3cccc(-c4cn[nH]c4)c3C#N)CC2)CC(C)(C)N1 [Compound I-429],20 to 80 µM,> 80 µM
CC1(C)CC(NC(=O)c2ccc(C(=O)c3ccccc3)cc2)CC(C)(C)N1 [Compound I-431],20 to 80 µM,> 80 µM
"CC1(C)CC(NC(=O)c2ccc(Oc3cccc(-c4ccncn4)c3C#N)c(Cl)c2)CC(C)(C)N1 [Compound I-480, 3-Chloro-4-(2-cyano-3-(pyrimidin-4-yl)phenoxy)-N-(2,2,6,6-tetramethylpiperidin-4-yl)benzamide]",< 5 µM,< 5 µM
CC1(C)CC(NC(=O)c2ccc(Oc3cccc(N4CCNCC4)c3)c(Cl)c2)CC(C)(C)N1 [Compound I-493],20 to 80 µM,> 80 µM
CC(=O)N1CCN(c2cccc(Oc3ccc(C(=O)NC4CC(C)(C)NC(C)(C)C4)cc3Cl)c2)CC1 [Compound I-499],20 to 80 µM,> 80 µM
"CC1(C)CC(OC(=O)c2ccc(Oc3cccc(-c4ccnnc4)c3C#N)c(Cl)c2)CC(C)(C)N1 [Compound I-504, 2,2,6,6-tetramethylpiperidin-4-yl 3-chloro-4-(2-cyano-3-(pyridazin-4-yl)phenoxy)benzoate]",< 5 µM,< 5 µM
CC1(C)CC(NC(=O)c2ccc(Oc3cccc(-c4ccnnc4)c3C#N)c(Cl)c2)CC(C)(C)S1(=O)=O [Compound I-533],< 5 µM,> 80 µM

SMILES,IC50 (EZH2),IC50 (Y641N EZH2)
CC(=O)N1CCC(c2cccc(Oc3ccc(C(=O)NC4CC(C)(C)NC(C)(C)C4)cc3)c2C#N)CC1 [Compound I-536],< 5 µM,20 to 80 µM
CC1(C)CC(NC(=O)c2ccc(Oc3cccc(-c4ccnnc4)c3C#N)c(Cl)c2)CC(C)(C)C1O (centres unmarked) [Compound I-548],< 5 µM,20 to 80 µM
CCOc1cc(-c2cccc(Oc3ccc(C(=O)NC4CC(C)(C)NC(C)(C)C4)cc3Cl)c2C#N)ccn1 [Compound I-556],< 5 µM,> 80 µM
CC1(C)CC(NC(=O)c2ccc(Oc3cccc(-c4ccc(O)nc4)c3C#N)c(Cl)c2)CC(C)(C)N1 [Compound I-558],< 5 µM,< 5 µM
CC1(C)CC(NC(=O)c2ccc(Oc3cccc(C4CCCO4)c3C#N)c(Cl)c2)CC(C)(C)N1 (centres unmarked) [Compound I-560],< 5 µM,> 80 µM
CC1(C)CC(NC(=O)c2ccc(Oc3cccc(-c4ccnc(C#N)c4)c3C#N)c(Cl)c2)CC(C)(C)N1 [Compound I-561],< 5 µM,< 5 µM
CC1(C)CC(NC(=O)c2ccc(Oc3cccc(-c4ccnnc4)c3C#N)c(Cl)c2)CC(C)(C)C1=O [Compound I-564],< 5 µM,> 80 µM
CC1(C)CC(NC(=O)c2ccc(Oc3cccc(-c4cncc(C#N)c4)c3C#N)c(Cl)c2)CC(C)(C)N1 [Compound I-571],< 5 µM,< 5 µM
Cc1cnccc1-c1cccc(Oc2ccc(C(=O)NC3CC(C)(C)NC(C)(C)C3)cc2Cl)c1C#N [Compound I-572],< 5 µM,< 5 µM
COc1cc(-c2cccc(Oc3ccc(C(=O)NC4CC(C)(C)NC(C)(C)C4)cc3Cl)c2C#N)cc(C)n1 [Compound I-573],< 5 µM,5 to 20 µM
CC1(C)CC(NC(=O)c2ccc(Oc3cccc(-c4ccnc(O)c4)c3C#N)c(Cl)c2)CC(C)(C)N1 [Compound I-583],< 5 µM,< 5 µM
Cc1cc(-c2cccc(Oc3ccc(C(=O)NC4CC(C)(C)NC(C)(C)C4)cc3Cl)c2C#N)ccn1 [Compound I-584],< 5 µM,< 5 µM
Cc1cc(-c2cccc(Oc3ccc(C(=O)NC4CC(C)(C)NC(C)(C)C4)cc3Cl)c2C#N)cc(C)n1 [Compound I-585],< 5 µM,5 to 20 µM
CC1(C)CC(NC(=O)c2ccc(Oc3cccc(-c4ccncc4Cl)c3C#N)c(Cl)c2)CC(C)(C)N1 [Compound I-586],< 5 µM,< 5 µM
CC1(C)CC(NC(=O)c2ccc(Oc3cccc(N4CCOCC4)c3)c(Cl)c2)CC(C)(C)N1 [Compound I-590],20 to 80 µM,> 80 µM
"CC1(C)CC(OCc2ccc(Oc3cccc(-c4ccncn4)c3C#N)c(Cl)c2)CC(C)(C)N1 [Compound I-591, 2-(2-chloro-4-(((2,2,6,6-tetramethylpiperidin-4-yl)oxy)methyl)phenoxy)-6-(pyrimidin-4-yl)benzonitrile]",< 5 µM,20 to 80 µM
"CC1(C)CC(/C=C/c2ccc(Oc3cccc(-c4ccncn4)c3C#N)c(Cl)c2)CC(C)(C)N1 [Compound I-592, (E)-2-(2-chloro-4-(2-(2,2,6,6-tetramethylpiperidin-4-yl)vinyl)phenoxy)-6-(pyrimidin-4-yl)benzonitrile]",< 5 µM,5 to 20 µM
